Measurements as given in patent EP0488079A1, “Oxadiazolylmethylpurines, their preparation, and their pharmaceutical use” (CHINOIN Gyògyszer és Vegyészeti Termékek Gyára RT., priority 1990, dated 1992).
Read-outs that look alike come from different tables or passages of the source.

Legend:
[1] = test system: Mäusen; test: Acute oral toxicity in mice; settings: p.o.
[2] = test system: durch elektrische Reizung des Nervus laryngeus Husten; test: Antitussive effect, cough induced in cats by electrical stimulation of the Nervus laryngeus; assay type: in vivo, Katzen; settings: for ED50: Felis catus, po, cough by electrical stimulation, p.o., p <0,001, read-out: ED₅₀ (±S.D.)
Excerpt: Die hustenlindernde Wirkung der Verbindung Ia wurde an Katzen untersucht, an denen durch elektrische Reizung des Nervus laryngeus Husten ausgelöst worden war (R. Domenjoz, Arch. Exp. Path. 1952, 19). Die zu untersuchenden Verbindungen wurden i.v. beziehungsweise mit Schlundsonde p.o. verabreicht. […] Tabelle 1

[3] = test system: durch einen 15 %-igen Citronensäurespray hervorgerufenem Husten; test: Antitussive effect, cough induced in guinea pigs by 15 % citric acid spray; assay type: in vivo, Meerschweinchen; settings: Cavia porcellus, po, 1 h, read-out: ED₅₀ (±S.D.)
Excerpt: Die hustenlindernde Wirkung wurde auch an Meerschweinchen untersucht, an denen die Dämpfung des durch einen 15 %-igen Citronensäurespray ausgelösten Hustens bestimmt wurde (I. Erdély, L. Tardos, Arzneim. Forsch. 1966, 617). Die hustenlindernden Mittel wurden eine Stunde vor der Messung oral verabreicht. Auch in diesem Test erwies sich die Verbindung Ia als starkes Hustenlinderungsmittel; ihre Wirkung übertraf die der Referenzsubstanzen (Tabelle 2). Tabelle 2

[4] = test system: isolierten glatten Luftröhrenmuskel des Meerschweinchens; test: Inhibition of the constrictor effect of histamine on isolated tracheal smooth muscle; assay type: cell-based, Meerschweinchen; settings: against histamine, isolated guinea pig tracheal smooth muscle; for EC50: cumulative dose series, read-out: p d 2 (converted)
Excerpt: Am glatten Luftröhrenmuskel des Meerschweinchens ist die Wirkung der Verbindung Ia der des Theophyllins ähnlich, wenn die Wirkung gegen Histamin in einer kumulativen Dosisreihe untersucht wird (Tabelle 3). Tabelle 3

[5] = test system: Mäusen; settings: in vivo
[6] = Absorption after oral administration; assay type: in vivo; settings: without salt formation
[7] = Water solubility; assay type: physicochemical
[8] = test system: Zentralnervensystem und das Herz; test: Respiratory depression and side effects on central nervous system and heart; assay type: in vivo
[9] = test system: sensibilisierten Meerschweinchen; test: Experimental asthma (anaphylaxis): airway resistance in ovalbumin-sensitised guinea pigs after intratracheal ovalbumin; assay type: in vivo; settings: for δ (Änderung des Beatmungswiderstands): deviation from own value after dosing
Method: Die Meerschweinchen wurden durch eine einmalige Gabe von 1 µg/kg Ovalbumin i.v. sensibilisiert (Andersson, Brattsand, Br. J. Pharmacol. 1982, 139) und bekamen nach 40 Tagen die zu untersuchenden Verbindungen in einer Dosis von 10 mg/kg i.v. Die narkotisierten, muskelrelaxierten und künstlich beatmeten Tiere erhielten 3 mg/kg Ovalbumin intratracheal, und zu unterschiedlichen Zeitpunkten wurde gemessen, wie stark die zu untersuchenden Verbindungen den Anstieg des Widerstandes der Luftwege zu kompensieren vermochten.
Nach Narkose Präparation und Verabreichung eines Muskelrelaxans Beatmung 1. Messung: 5 min nach Injizierung von 10 mg/kg Wirkstoff, dann intratracheale Provokation (Minute 0) 2. Messung: 3 min nach intratrachealer Provokation 3. Messung: 6 min nach intratrachealer Provokation 4. Messung: 12 min nach intratrachealer Provokation 5. Messung: 24 min nach intratrachealer Provokation.
Die Beatmung erfolgte mit positivem Druck bei einer Frequenz von 90/min und einem Volumen von 3 ml.
Die Kontrollgruppe erhielt physiologische Kochsalzlösung. Der Wert δ ist die Abweichung von dem eigenen, nach der Verabreichung der Dosis von 10 mg/kg Wirkstoff gemessenen Wert (Eigenkontrolle).

[10] = test system: durch Histamin ausgelösten Anstiegs des Widerstands der Luftwege; test: Inhibition of the histamine-induced rise in airway resistance in cats; assay type: in vivo, Katzen; settings: for Wirkungsmaximum: 3 µg/kg histamine i.v., 4 mg/kg substance intraduodenal, measured minute 10 to 120; for rel.Wirkungsstärke: relative to Theophyllin = 1,00
Excerpt: Die Hemmung des durch Histamin ausgelösten Anstiegs des Widerstands der Luftwege wurde an Katzen untersucht (M.A. Wassermann, D.W. Du Charme, Prostaglandins, 1977, 255).
Minute gemessen. […] Tabelle 4

[11] = 10 mg/kg i.v., 3 min after intratracheal ovalbumin
[12] = 10 mg/kg i.v., 6 min after intratracheal ovalbumin
[13] = 10 mg/kg i.v., 12 min after intratracheal ovalbumin
[14] = 10 mg/kg i.v., 24 min after intratracheal ovalbumin

Compound: COc1ccc2c3c1O[C@H]1[C@@H](O)C=C[C@H]4[C@@H](C2)N(C)CC[C@@]341.Cl [Codeïn HCl]
- DL₅₀ [1]: 359,2 mg/kg
- ED50 [2]: 4.33 mg/kg
- ED50 [3]: 12.8 mg/kg

Compound: Cc1nc(Cn2cnc3[nH]c(=O)n(C)c(=O)c32)no1 [Verbindung Ia, 1-Methyl-7-(5-methyl-1,2,4-oxadiazol-3-yl)-methyl-3,7-dihydro-3H-purin-2,6-dion]
- EC50 [4]: 3.31 µM
- Emax [4]: 36%
- ED50 [2]: 3.74 mg/kg
- hustenlindernde Wirkung ([2]; i.v. and p.o.): bedeutende hustenlindernde Wirkung
- Zeitdauer der Wirkung ([2]; i.v. and p.o., compared with reference substances): länger als die der Referenzsubstanzen
- therapeutischer Index [5]: um mehr als eine Größenordnung besser als der der Referenzsubstanzen
- DL₅₀ ([5]; mouse, po): > 2000 mg/kg
- Resorption [6]: ausgezeichnet und schnell resorbiert
- Wasserlöslichkeit [7]: mäßigen Wasserlöslichkeit
- atmungsdämpfende Wirkung ([8]; in contrast to the reference substances): keine atmungsdämpfende Wirkung
- unerwünschte Nebenwirkungen auf das Zentralnervensystem und das Herz ([8]; side effects characteristic of Theophyllin): nicht aufweist
- Beatmungswiderstand R [9, 11]: 9,21±0,84 Pa/ml/s
- δ (Änderung des Beatmungswiderstands) [9, 11]: 1,14±0,77 Pa/ml/s
- Beatmungswiderstand R [9, 12]: 9,41±0,91 Pa/ml/s
- δ (Änderung des Beatmungswiderstands) [9, 12]: 1,34±0,96 Pa/ml/s
- Beatmungswiderstand R [9, 13]: 10,10±0,94 Pa/ml/s
- δ (Änderung des Beatmungswiderstands) [9, 13]: 2,03±0,44 Pa/ml/s
- Beatmungswiderstand R [9, 14]: 9,92±1.11 Pa/ml/s
- δ (Änderung des Beatmungswiderstands) [9, 14]: 1,85±0,64 Pa/ml/s
- Beatmungswiderstand R ([9]; nach 10 mg i.v. (5 min after injection, before intratracheal ovalbumin provocation)): 8,07±0,93 Pa/ml/s
- ED50 ([3]; guinea pigs, 15 % citric acid spray, one hour after p.o. administration, p <0,001): 3.04 mg/kg
- Wirkungsmaximum [10]: 28,2
- Dauer der Wirkung ([10]; 4 mg/kg intraduodenal, compared with Theophyllin): hielt längere Zeit an
- rel.Wirkungsstärke ([10]; 4 mg/kg intraduodenal): 1,79

Compound: COc1ccc2c(c1)[C@]13CCCC[C@@H]1[C@H](C2)N(C)CC3 [Dextromethorphan HBr]
- DL₅₀ [1]: 165,9 mg/kg
- ED50 [3]: 5.26 mg/kg

Compound: Cn1c(=O)c2[nH]cnc2n(C)c1=O [Theophyllin, reference compound]
- EC50 [4]: 4.17 µM
- Emax [4]: 44%
- Wirkungsmaximum [10]: 15,7
- rel.Wirkungsstärke ([10]; 4 mg/kg intraduodenal): 1,00
